This experiment deals with T1, protoporphyrinogen oxidase (Saccharomyces cerevisiae, UniProt P40012).
T1 sequence (P40012 1-539): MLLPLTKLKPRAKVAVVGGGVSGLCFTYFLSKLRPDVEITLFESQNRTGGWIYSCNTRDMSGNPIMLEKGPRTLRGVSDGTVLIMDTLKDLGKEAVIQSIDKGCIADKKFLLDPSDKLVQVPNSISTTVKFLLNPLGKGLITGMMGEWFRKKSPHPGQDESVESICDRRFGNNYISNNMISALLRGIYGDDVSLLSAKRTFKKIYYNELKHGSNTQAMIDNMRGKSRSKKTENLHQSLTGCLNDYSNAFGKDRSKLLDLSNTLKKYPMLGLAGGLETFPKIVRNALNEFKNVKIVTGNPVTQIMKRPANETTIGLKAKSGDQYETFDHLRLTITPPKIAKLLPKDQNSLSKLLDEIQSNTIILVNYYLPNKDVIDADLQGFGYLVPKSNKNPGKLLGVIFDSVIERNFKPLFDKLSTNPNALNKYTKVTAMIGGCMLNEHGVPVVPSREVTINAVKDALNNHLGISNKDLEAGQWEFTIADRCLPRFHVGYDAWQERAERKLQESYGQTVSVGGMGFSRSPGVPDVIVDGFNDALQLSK
Nature of the experiment: fluorimetric protoporphyrinogen oxidase activity assay. In kind it is biochemical.

The record followed here is PMC2171038 (Traffic (Copenhagen, Denmark), 2007).

Usually IC50 stands for the concentration that inhibits the measured activity by half. Low values mean greater potency in that assay, high ones weaker potency in that assay. Regarding `CC(=O)N(O)CCCCCNC(=O)CCC(=O)N(O)CCCCCNC(=O)CCC(=O)N(O)CCCCCNC(=O)c1cc(Oc2ccc(C(F)(F)F)cc2Cl)ccc1[N+](=O)[O-]` [compound 1, DFOB-AF], the IC50 was around 100 nM.
